Test results from US20100311683A1, “CYTIDINE ANALOGS FOR TREATMENT OF MYELODYSPLASTIC SYNDROMES” (priority 2007, published 2010).
Like-named read-outs stand apart in the source and are kept apart here.

Test system: MDS patients

Nc1ncn([C@@H]2O[C@H](CO)[C@@H](O)[C@H]2O)c(=O)n1 [azacitidine, 4-amino-1-β-D-ribofuranosyl-1,3,5-triazin-2(1H)-one]
Grade 3/4 AE: Febrile neutropenia (AZA 5-2-2 (75 mg/m2/d), N=50): 4 (8) % | Grade 3/4 AE: GI hemorrhage (AZA 5-2-2 (75 mg/m2/d), N=50): 1 (2) % | Grade 3/4 AE: Hematologic Disorders (AZA 5-2-2 (75 mg/m2/d), N=50): 33 (66) % | Grade 3/4 AE: Hemorrhagic Events (AZA 5-2-2 (75 mg/m2/d), N=50): 4 (8) % | Grade 3/4 AE: Hemorrhagic anemia (AZA 5-2-2 (75 mg/m2/d), N=50): 0 n (%) | Grade 3/4 AE: Infections (AZA 5-2-2 (75 mg/m2/d), N=50): 11 (22) % | Grade 3/4 AE: Leukopenia (AZA 5-2-2 (75 mg/m2/d), N=50): 7 (14) % | Grade 3/4 AE: Neutropenia (AZA 5-2-2 (75 mg/m2/d), N=50): 21 (42) % | Grade 3/4 AE: Pneumonia (AZA 5-2-2 (75 mg/m2/d), N=50): 0% | Grade 3/4 AE: Rectal hemorrhage (AZA 5-2-2 (75 mg/m2/d), N=50): 0% | Grade 3/4 AE: Thrombocytopenia (AZA 5-2-2 (75 mg/m2/d), N=50): 13 (26) % | Grade 3/4 AE: Urinary tract infection (AZA 5-2-2 (75 mg/m2/d), N=50): 0% | Grade 3/4 AE: ≥1 Adverse Event (AZA 5-2-2 (75 mg/m2/d), N=50): 42 (84) % | onset of IWG-defined HI in Cycle 1 (AZA 5-2-2 (75 mg/m2/d), n=22): 9 (41) % | onset of IWG-defined HI in Cycle 2 (AZA 5-2-2 (75 mg/m2/d), n=22): 9 (41) % | onset of IWG-defined HI in Cycle 3 (AZA 5-2-2 (75 mg/m2/d), n=22): 1 (5) % | onset of IWG-defined HI in Cycle 4 (AZA 5-2-2 (75 mg/m2/d), n=22): 0% | onset of IWG-defined HI in Cycle 5 (AZA 5-2-2 (75 mg/m2/d), n=22): 2 (9) % | onset of IWG-defined HI in Cycle 6 (AZA 5-2-2 (75 mg/m2/d), n=22): 1 (5) % | FAB low-risk patients RBC transfusion independent at baseline who remained independent during the study (AZA 5-2-5 (50 mg/m2/d)): 80% | RBC transfusion-dependent patients who achieved and retained independence at the end of cycle 6 (AZA 5-2-5 (50 mg/m2/d)): 92% | evaluable patients RBC transfusion independent at baseline who remained independent during the study (AZA 5-2-5 (50 mg/m2/d)): 79% | mean duration of RBC transfusion independence (AZA 5-2-5 (50 mg/m2/d)): 138 days | onset of HI within the first 3 cycles (AZA 5-2-5 (50 mg/m2/d)): 88% | patients with at least 1 treatment-emergent AE that led to study discontinuation (AZA 5-2-5 (50 mg/m2/d)): 20% | patients with bilineage HI (AZA 5-2-5 (50 mg/m2/d)): 7% | patients with serious AEs (AZA 5-2-5 (50 mg/m2/d)): 40% | Any HI (major and minor) (AZA 5-2-5 (50 mg/m2/d), N=44): 23 (52) [37, 68] % | Erythroid Major HI (IWG 2000), evaluable patients (AZA 5-2-5 (50 mg/m2/d), N=44): 17 (39) [24, 55] % | Erythroid Minor HI (AZA 5-2-5 (50 mg/m2/d), N=44): 1 (2) [0.1, 12] % | Neutrophil Major HI (AZA 5-2-5 (50 mg/m2/d), N=44): 4 (9) [40, 100] % | Neutrophil Minor HI (AZA 5-2-5 (50 mg/m2/d), N=44): 0 [0, 8] % | Platelet Major HI (AZA 5-2-5 (50 mg/m2/d), N=44): 8 (18) [8, 33] % | Platelet Minor HI (AZA 5-2-5 (50 mg/m2/d), N=44): 0 [0, 8] % | Grade 3/4 AE: Anemia (AZA 5-2-5 (50 mg/m2/d), N=48): 7 (15) % | Grade 3/4 AE: Candida Sepsis (AZA 5-2-5 (50 mg/m2/d), N=48): 0% | Grade 3/4 AE: Cellulitis (AZA 5-2-5 (50 mg/m2/d), N=48): 1 (2) % | Grade 3/4 AE: Epistaxis (AZA 5-2-5 (50 mg/m2/d), N=48): 0% | Grade 3/4 AE: Febrile neutropenia (AZA 5-2-5 (50 mg/m2/d), N=48): 4 (8) % | Grade 3/4 AE: GI hemorrhage (AZA 5-2-5 (50 mg/m2/d), N=48): 1 (2) % | Grade 3/4 AE: Hematologic Disorders (AZA 5-2-5 (50 mg/m2/d), N=48): 24 (50) % | Grade 3/4 AE: Hemorrhagic Events (AZA 5-2-5 (50 mg/m2/d), N=48): 3 (6) % | Grade 3/4 AE: Hemorrhagic anemia (AZA 5-2-5 (50 mg/m2/d), N=48): 0 n (%) | Grade 3/4 AE: Infections (AZA 5-2-5 (50 mg/m2/d), N=48): 14 (29) % | Grade 3/4 AE: Leukopenia (AZA 5-2-5 (50 mg/m2/d), N=48): 4 (8) % | Grade 3/4 AE: Neutropenia (AZA 5-2-5 (50 mg/m2/d), N=48): 15 (31) % | Grade 3/4 AE: Pneumonia (AZA 5-2-5 (50 mg/m2/d), N=48): 4 (8) % | Grade 3/4 AE: Rectal hemorrhage (AZA 5-2-5 (50 mg/m2/d), N=48): 1 (2) % | Grade 3/4 AE: Thrombocytopenia (AZA 5-2-5 (50 mg/m2/d), N=48): 7 (15) % | Grade 3/4 AE: Urinary tract infection (AZA 5-2-5 (50 mg/m2/d), N=48): 3 (6) % | Grade 3/4 AE: ≥1 Adverse Event (AZA 5-2-5 (50 mg/m2/d), N=48): 37 (77) % | onset of IWG-defined HI in Cycle 1 (AZA 5-2-5 (50 mg/m2/d), n=24): 6 (25) % | onset of IWG-defined HI in Cycle 2 (AZA 5-2-5 (50 mg/m2/d), n=24): 8 (33) % | onset of IWG-defined HI in Cycle 3 (AZA 5-2-5 (50 mg/m2/d), n=24): 7 (29) % | onset of IWG-defined HI in Cycle 4 (AZA 5-2-5 (50 mg/m2/d), n=24): 2 (8) % | onset of IWG-defined HI in Cycle 6 (AZA 5-2-5 (50 mg/m2/d), n=24): 0% | hematologic AE: anemia (all 3 regimens): 29% | hematologic AE: leukopenia (all 3 regimens): 18% | hematologic AE: neutropenia (all 3 regimens): 38% | hematologic AE: thrombocytopenia (all 3 regimens): 24% | nonhematologic AE: constipation (all 3 regimens): 51% | nonhematologic AE: fatigue (all 3 regimens): 93% | nonhematologic AE: injection site erythema (all 3 regimens): 55% | nonhematologic AE: injection site pain (all 3 regimens): 54% | nonhematologic AE: nausea (all 3 regimens): 55% | Grade 3/4 AE: Anemia (all 3 regimens, N=148): 24 (16) % | Grade 3/4 AE: Candida Sepsis (all 3 regimens, N=148): 1 (1) % | Grade 3/4 AE: Cellulitis (all 3 regimens, N=148): 4 (3) % | Grade 3/4 AE: Epistaxis (all 3 regimens, N=148): 1 (1) % | Grade 3/4 AE: Febrile neutropenia (all 3 regimens, N=148): 9 (6) % | Grade 3/4 AE: GI hemorrhage (all 3 regimens, N=148): 2 (1) % | Grade 3/4 AE: Hematologic Disorders (all 3 regimens, N=148): 74 (50) % | Grade 3/4 AE: Hemorrhagic Events (all 3 regimens, N=148): 8 (5) % | Grade 3/4 AE: Infections (all 3 regimens, N=148): 30 (20) % | Grade 3/4 AE: Leukopenia (all 3 regimens, N=148): 15 (10) % | Grade 3/4 AE: Neutropenia (all 3 regimens, N=148): 47 (32) % | Grade 3/4 AE: Pneumonia (all 3 regimens, N=148): 5 (3) % | Grade 3/4 AE: Rectal hemorrhage (all 3 regimens, N=148): 1 (1) % | Grade 3/4 AE: Thrombocytopenia (all 3 regimens, N=148): 26 (18) % | Grade 3/4 AE: Urinary tract infection (all 3 regimens, N=148): 3 (2) % | Grade 3/4 AE: ≥1 Adverse Event (all 3 regimens, N=148): 108 (73) % | serious AEs involving GI disorders (all 3 regimens, n=12): 8% | serious AEs involving blood or lymphatic system disorders (all 3 regimens, n=19): 13% | serious AEs involving infections (all 3 regimens, n=31): 21% | patients platelet transfusion independent at baseline who remained independent (each alternative dosing regimen group): ≥ 92% | patients with trilineage HI (each of the 3 alternative treatment groups (2 patients each)): 4% | platelet transfusion independence in baseline-dependent patients (five patients (AZA 5-2-2 n=2, AZA 5 n=3)): all of whom achieved transfusion independence | tolerability (three alternative dosing regimens): generally well tolerated
